The record followed here is ChEMBL document CHEMBL4419173, “Small-molecule inhibitors targeting g-protein-coupled rho guanine nucleotide exchange factors” (2014).

As usually defined, the inhibition is the drop in the measured response relative to a control, in per cent. One may read the IC50 as the concentration that gives 50% inhibition.

Assay [1] concerns the target Proto-oncogene DBL/Transforming protein RhoA (Homo sapiens) (UniProt P61586+P10911). Briefly: Inhibition of GST-tagged human DBL RhoGEF DH-PH module expressed in mouse NIH/3T3 cells assessed as reduction in human full length RhoA (1 to 193 residues) interaction with DBL RhoGEF at 10 to 50 uM incubated for 1 hr by Western blot analysis based His-RhoA pull-down assay. It counts as cell-based. Background: In western blotting, separated proteins are transferred to a membrane and probed.

The target in assay [2] is T1, RhoGEF 1/Transforming protein RhoA (Homo sapiens) (UniProt P61586+Q92888). Briefly: Inhibition of GFP-tagged human p115 RhoGEF DH-PH module expressed in mouse NIH/3T3 cells assessed as reduction in human full length RhoA (1 to 193 residues) interaction with p115 RhoGEF at 30 to 50 uM incubated for 1 hr by Western blot analysis based GST-RhoA pull-down assay. It counts as cell-based.

Assay [3] concerns the target T1, RhoGEF 1/Transforming protein RhoA (Homo sapiens). Briefly: Binding affinity to human LARG (765 to 1138 residues) DH-PH module expressed in mouse NIH/3T3 cells assessed as reduction in LARG binding to human full length RhoA (1 to 193 residues) by measuring relative LARG binding level at 10 uM pull-down assay (reference value: 1 No unit). Format: cell-based.
Assay [4] concerns MCF7. Briefly: Inhibition of mammospheres formation in human MCF7 cells at 2.5 to 15 uM in presence of 2.5 to 15 uM Rhosin/G04 incubated for 10 days. It counts as functional, cell-based.
For assay [5], the species on record is Mus musculus. Briefly: Inhibition of RhoGEF in mouse NIH/3T3 cells assessed as inhibition of 10% calf serum-induced RhoA-GTP formation by measuring relative RhoA-GTP level at 30 uM incubated for 24 hrs by densitometry (reference value: 1). Format: cell-based.
For assay [6], the system named is MCF7. Briefly: Inhibition of RhoGEF in human MCF7 cells derived mammospheres assessed as inhibition of RhoA-mediated phospho-MLC formation at 10 uM incubated for 24 hrs by densitometry. Format: cell-based.
Assay [7] has as its target Rho guanine nucleotide exchange factor 12 (Homo sapiens, UniProt Q9NZN5). The assay is described as follows: Inhibition of human LARG (765 to 1138 residues) RhoGEF binding to human full length RhoA (1 to 193 residues) in presence of Rhosin/G04.
For assay [8], the system named is MCF7. Briefly: Inhibition of cell migration of human MCF7 cells at 10 to 50 uM. Format: functional, cell-based.

Active and inactive are the calls of the source. No cut-off for these calls is given here.

Rho guanine nucleotide exchange factor 12, sequence (Q9NZN5 whole entry, the tested form may be a part): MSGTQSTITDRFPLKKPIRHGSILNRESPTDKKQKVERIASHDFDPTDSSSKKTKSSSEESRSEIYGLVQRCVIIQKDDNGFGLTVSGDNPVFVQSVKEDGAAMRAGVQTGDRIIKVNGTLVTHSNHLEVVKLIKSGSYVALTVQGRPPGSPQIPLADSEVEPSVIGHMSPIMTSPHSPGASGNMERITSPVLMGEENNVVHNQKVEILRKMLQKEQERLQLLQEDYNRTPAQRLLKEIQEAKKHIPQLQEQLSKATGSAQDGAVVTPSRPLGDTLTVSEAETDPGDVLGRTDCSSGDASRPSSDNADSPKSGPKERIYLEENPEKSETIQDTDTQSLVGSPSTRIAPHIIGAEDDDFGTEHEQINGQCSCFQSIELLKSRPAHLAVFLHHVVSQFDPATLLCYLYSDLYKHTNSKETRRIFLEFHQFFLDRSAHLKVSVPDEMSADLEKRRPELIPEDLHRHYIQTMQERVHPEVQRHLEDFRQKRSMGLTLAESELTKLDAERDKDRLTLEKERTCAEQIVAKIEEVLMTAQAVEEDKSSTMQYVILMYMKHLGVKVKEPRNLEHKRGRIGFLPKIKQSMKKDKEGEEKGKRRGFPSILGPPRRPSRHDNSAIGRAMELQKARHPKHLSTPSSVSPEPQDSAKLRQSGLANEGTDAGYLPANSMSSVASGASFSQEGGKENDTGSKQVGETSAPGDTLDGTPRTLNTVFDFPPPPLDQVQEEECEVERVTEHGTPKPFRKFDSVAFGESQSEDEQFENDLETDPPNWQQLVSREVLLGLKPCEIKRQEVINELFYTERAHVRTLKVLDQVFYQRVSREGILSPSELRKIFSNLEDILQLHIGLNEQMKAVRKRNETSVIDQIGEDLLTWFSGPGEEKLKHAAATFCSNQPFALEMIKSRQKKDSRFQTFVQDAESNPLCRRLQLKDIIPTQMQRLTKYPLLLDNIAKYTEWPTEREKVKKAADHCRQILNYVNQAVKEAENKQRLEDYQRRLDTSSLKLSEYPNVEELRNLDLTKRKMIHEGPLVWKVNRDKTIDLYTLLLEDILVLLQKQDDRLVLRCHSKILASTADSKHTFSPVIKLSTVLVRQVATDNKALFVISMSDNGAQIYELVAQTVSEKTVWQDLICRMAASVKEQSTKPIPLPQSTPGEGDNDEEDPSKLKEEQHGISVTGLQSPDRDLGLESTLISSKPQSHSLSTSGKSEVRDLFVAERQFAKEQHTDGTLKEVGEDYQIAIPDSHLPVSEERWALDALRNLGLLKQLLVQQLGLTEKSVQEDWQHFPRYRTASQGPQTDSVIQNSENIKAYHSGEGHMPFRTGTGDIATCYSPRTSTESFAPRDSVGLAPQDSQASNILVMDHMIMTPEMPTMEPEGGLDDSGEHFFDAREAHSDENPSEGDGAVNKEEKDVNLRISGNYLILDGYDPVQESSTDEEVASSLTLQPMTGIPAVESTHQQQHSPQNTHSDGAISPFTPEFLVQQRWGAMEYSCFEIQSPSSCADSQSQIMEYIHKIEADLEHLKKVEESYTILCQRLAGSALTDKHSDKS

`Cc1cccc(COc2cccc(/C=C3\C(=O)NN(c4ccccc4)C3=O)c2)c1`: in assay [1], the inhibition entry is “inactive”. In addition, the inhibition entry in assay [2], in assay [4] and in assay [8] was “Active” each time. Moreover, the fold change (FC) in assay [3] was found to be 0.61; in assay [5], 0.51. Also, the inhibition in assay [6] worked out at 50%. For the same compound, the half-maximal inhibitory concentration (IC50) in assay [7] came out at 1000 nM.
